Where a name gives a salt, the structure may show the parent alone. Read-outs that look alike come from different tables or passages of the source.

Series [1] concerns the target T1, BFP-aq (Aequorea victoria, UniProt P07164). Briefly: biochemical. It counts as biochemical. Details: The recombinant apoaequorins encoded by piP-HE is composed of 191 amino acids, whose N-terminus starts from Ala-Asn-Ser-; made in house; host or cells: E. coli strain WA802. The conditions noted are these: for Luminescence activity (%) Imax: 50 mM Tris-HCl pH 8.0, 25° C., coelenterazine 1 μg, no compound = 100%. As for the experimental part:
(§1) Solutions of 50 mM Tris-HCl (pH 8.0), each containing various commercial organic compounds shown in Table 3, were prepared and pre-warmed at 25° C. The substrate coelenterazine (1 μg) was added to the solutions (200 μl) containing each of these compounds.

The conditions of series [2]: cited from earlier work.
Series [3] deals with T2, BFP-aq, luciferase with fluorescence activity derived from aequorin (recombinant apoaequorin, SEQ ID NO: 1 with N-terminal Val replaced by Ala-Asn-Ser; complex with coelenteramide and calcium ions) (Aequorea victoria, UniProt P02592).
T2 construct: The recombinant apoaequorins encoded by piP-HE is composed of 191 amino acids, whose N-terminus starts from Ala-Asn-Ser-; made in house; host or cells: E. coli strain WA802 (expression vector piP-HE)
T2 sequence (P02592 with tags, fused parts or gaps): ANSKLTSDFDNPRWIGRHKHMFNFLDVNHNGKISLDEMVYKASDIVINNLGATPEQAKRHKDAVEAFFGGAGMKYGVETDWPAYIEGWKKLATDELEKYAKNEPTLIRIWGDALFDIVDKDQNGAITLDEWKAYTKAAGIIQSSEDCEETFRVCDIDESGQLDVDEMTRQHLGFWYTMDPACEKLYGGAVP
In words: Enhancing effect of organic compounds on BFP-aq luminescence with coelenterazine as substrate (Table 4). The conditions noted are these: pH 8.0, 25° C., no addition = 100%; for activity at 30000 µM: 30 mM compound; for activity at 150000 µM: 150 mM compound; for activity at 300000 µM: 300 mM compound; for activity at 3 M: 3000 mM compound. Type of series: biochemical.
Source text: To obtain recombinant apoaequorins, the apoaequorin gene expression vector piP-HE (Japanese Laid-Open Application No. 1989-132397) constructed from pAQ440 harboring the apoaequorin gene (Japanese Laid-Open Application No. 1986-135586) was used. The recombinant apoaequorins encoded by piP-HE is composed of 191 amino acids, whose N-terminus starts from Ala-Asn-Ser-(Val of the N-terminus of SEQ ID NO: 1 in the sequence listing was replaced by Ala-Asn-Ser-).
In a VIVASPIN 2 column, the concentrated aequorin solution was overlaid with 0.9 ml of 50 mM Tris-HCl (pH 7.6) containing 5 mM calcium chloride (Wako Pure Chemicals Industries, Ltd.) and 2 mM dithiothreitol (Wako Pure Chemicals Industries, Ltd.) to trigger continuous light emission and the column was allowed to stand at […] for 24 hours or longer. […] Further, 2 ml of 50 mM Tris-HCI (pH 7.6) containing 5 mM calcium chloride (Wako Pure Chemicals Industries, Ltd.) and 2 mM dithiothreitol (Wako Pure Chemicals Industries, Ltd.) was loaded onto the VIVASPIN 2 column and the column was centrifuged under the identical conditions and then washed.
as §1

The target of series [4] is T1, BFP-aq. Type of series: biochemical. The conditions noted are these: for Relative luminescence activity Imax (%) / Relative luminescence activity Initial velocity (%): substrate 1 μg, BFP-aq 1.2 μg, pH 8.0, coelenterazine without imidazole = 100%. Also noted: The recombinant apoaequorins encoded by piP-HE is composed of 191 amino acids, whose N-terminus starts from Ala-Asn-Ser-; made in house; host or cells: E. coli strain WA802. Here is the method:
200 μl of this solution was placed in five vessels, to each of which 1 μg of the substrate coelenterazine (CTZ) and its four analogs: h-CTZ, cp-CTZ, hcp-CTZ, f-CTZ were added.

Substrate in series [5]: Oc1ccc(Cc2nc3c(Cc4ccccc4)nc(-c4ccc(O)cc4)cn3c2O)cc1
In words: Light-emitting reaction rate of BFP-aq, Lineweaver-Burk plot (Table 6). Type of series: biochemical, Aequorea victoria. The conditions noted are these: other: coelenterazine, pH 8.0, 25° C.

Where [6] appears, read: pH 8, read-out: Luminescence activity (%) Imax.
The mark [7] stands for this setting: pH 8, read-out: Luminescence activity (%) Initial velocity.
Where [8] appears, read: read-out: Luminescence activity, Imax.
The mark [9] stands for this setting: read-out: Luminescence activity, initial velocity.

Turning to `Cc1ncc[nH]1` [2-Methylimidazole], the activity at 30000 µM at BFP-aq [1] (setting [6]) worked out at 63%; at BFP-aq [1] (setting [7]), 83%. Besides, the activity at 150000 µM was 16% on BFP-aq [1] (setting [6]) and 21% at BFP-aq [1] (setting [7]).

For `Cc1c[nH]cn1` [4-Methylimidazole], in series [2], the pKa (in general, the negative logarithm of the acid dissociation constant) is 7.5. For the same molecule, on BFP-aq [1] (setting [6]), the activity at 30000 µM was found to be 88% and the activity at 150000 µM was determined as 78%. Further, on BFP-aq [1] (setting [7]), the activity at 30000 µM stood at 92% and the activity at 150000 µM was determined as 95%.

In the case of `NC(=O)c1nc[nH]c1N` [5-Amino-imidazole-4-carboxamide/hydrochloride], the “Luminescence activity (%) Imax” value is recorded as 64% on BFP-aq [1] (compound 30 mM) and 0% on BFP-aq [1] (compound 150 mM). Besides, the results for the activity at 30000 µM in series [3] (setting [8]) and in series [3] (setting [9]) were 64% and 48%, respectively. Moreover, the figures for the activity at 150000 µM in series [3] (setting [8]) and in series [3] (setting [9]) were 0% and 2%, respectively.

As for `CC(N)=O` [Acetamide/hydrochloride], the “Luminescence activity (%) Imax” value worked out at 73% on BFP-aq [1] (compound 30 mM), 31% at BFP-aq [1] (compound 150 mM) and 55% at BFP-aq [1] (compound 300 mM). The activity at 30000 µM in series [3] (setting [8]) came out at 73%; in series [3] (setting [9]), 132%. Further, the activity at 150000 µM in series [3] (setting [8]) is 31%; in series [3] (setting [9]) it was 44%. Besides, the activity at 300000 µM amounted to 55% in series [3] (setting [8]) and 95% in series [3] (setting [9]).

In the case of `N=C(N)N` [Guanidine/hydrochloride], the entries for the “Luminescence activity (%) Imax” value at BFP-aq [1] (compound 30 mM), at BFP-aq [1] (compound 150 mM) and at BFP-aq [1] (compound 300 mM) were 92%, 109% and 65%, respectively. Besides, the activity at 30000 µM is 92% in series [3] (setting [8]) and 130% in series [3] (setting [9]). For the same molecule, the figures for the activity at 150000 µM in series [3] (setting [8]) and in series [3] (setting [9]) were 109% and 226%, respectively. The activity at 300000 µM in series [3] (setting [8]) is 65%; in series [3] (setting [9]), 118%.

For the molecule `NCCc1c[nH]cn1` [Histamine], the pKa in series [2] was 8.0. For the same molecule, at BFP-aq [1] (setting [6]), the activity at 30000 µM was determined as 69% and the activity at 150000 µM stood at 22%. Also, on BFP-aq [1] (setting [7]), the activity at 30000 µM was found to be 92% and the activity at 150000 µM was 26%.

With `C[C@H](N)C(=O)O` [L-Alanine], at BFP-aq [1] (setting [6]), the activity at 30000 µM is 88% and the activity at 150000 µM turned out to be 77%. At BFP-aq [1] (setting [7]), the activity at 30000 µM was 82% and the activity at 150000 µM is 59%.

For the molecule `N=C(N)NCCC[C@H](N)C(=O)O` [L-Arginine], on BFP-aq [1] (setting [6]), the activity at 30000 µM came to 62% and the activity at 150000 µM worked out at 1%. Also, on BFP-aq [1] (setting [7]), the activity at 30000 µM stood at 73% and the activity at 150000 µM worked out at 4%.

`NCC(=O)O` [L-Glycine]: the pKa in series [2] was 6.0. The entries for the “Luminescence activity (%) Imax” value on BFP-aq [1] (compound 30 mM) and at BFP-aq [1] (compound 150 mM) were 87% and 83%, respectively. Moreover, the activity at 30000 µM in series [3] (setting [8]) was determined as 87%; in series [3] (setting [9]), 104%. In addition, the activity at 150000 µM in series [3] (setting [8]) stood at 83%; in series [3] (setting [9]), 78%.

Take `N[C@@H](Cc1c[nH]cn1)C(=O)O` [L-Histidine]: at BFP-aq [1] (setting [6]), the activity at 30000 µM was found to be 37% and the activity at 150000 µM is 5%. Also, at BFP-aq [1] (setting [7]), the activity at 30000 µM came out at 82% and the activity at 150000 µM is 27%.

As for `NCCCC[C@H](N)C(=O)O` [L-Lysine], on BFP-aq [1] (setting [6]), the activity at 30000 µM worked out at 60% and the activity at 150000 µM stood at 1%. Besides, on BFP-aq [1] (setting [7]), the activity at 30000 µM is 66% and the activity at 150000 µM was 10%.

For `CCN(CC)CC` [Triethylamine], on BFP-aq [1] (setting [6]), the activity at 30000 µM amounted to 68% and the activity at 150000 µM was determined as 8%. Further, on BFP-aq [1] (setting [7]), the activity at 30000 µM came to 68% and the activity at 150000 µM was 12%.

Regarding `NC(N)=O` [Urea], the entries for the “Luminescence activity (%) Imax” value at BFP-aq [1], on BFP-aq [1] (compound 30 mM) and at BFP-aq [1] (compound 150 mM) were 29%, 84% and 89%, respectively. Also, the activity at 30000 µM in series [3] (setting [8]) amounted to 84%; in series [3] (setting [9]) it was 113%. Besides, the results for the activity at 150000 µM in series [3] (setting [8]) and in series [3] (setting [9]) were 89% and 104%, respectively. Besides, the activity at 3 M in series [3] (setting [8]) is 29%; in series [3] (setting [9]), 57%.

For the molecule `O=C(O)/C=C/c1c[nH]cn1` [Urocanic acid], the pKa in series [2] is listed as 5.8. Besides, the activity at 30000 µM at BFP-aq [1] (setting [6]) worked out at 44%; on BFP-aq [1] (setting [7]), 31%.

As for `O=c1c(Cc2ccc(O)cc2)nc2c(CC3CCCC3)[nH]c(-c3ccc(O)cc3)cn1-2` [cp-Coelenterazine], the “Suitability as substrate in the BFP-aq light-emitting reaction system” value (“Suitability as substrate” below) on BFP-aq [4] was “served as effective substrates”. For the same molecule, the “Relative luminescence activity Imax (%)” value was 138% on BFP-aq [4] (with 150 mM imidazole) and 54% on BFP-aq [4] (without imidazole). The “Relative luminescence activity Initial velocity (%)” value stood at 535% on BFP-aq [4] (with 150 mM imidazole) and 152% on BFP-aq [4] (without imidazole).

Consider `O=c1c(Cc2ccc(F)cc2)nc2c(Cc3ccccc3)[nH]c(-c3ccc(O)cc3)cn1-2` [f-Coelenterazine], for which the “Suitability as substrate” value on BFP-aq [4] is recorded as “served as effective substrates”.

For `O=c1c(Cc2ccccc2)nc2c(Cc3ccccc3)[nH]c(-c3ccc(O)cc3)cn1-2` [h-Coelenterazine], at BFP-aq [4], the “Suitability as substrate” value is “served as effective substrates”.

`O=c1c(Cc2ccccc2)nc2c(CC3CCCC3)[nH]c(-c3ccc(O)cc3)cn1-2` [hcp-Coelenterazine]: at BFP-aq [4], the “Suitability as substrate” value is listed as “served as effective substrates”. For the same molecule, at BFP-aq [4] (with 150 mM imidazole), the “Imax relative to coelenterazine without imidazole” value worked out at 4 fold and the “Velocity of light-emitting reaction relative to coelenterazine without imidazole” value turned out to be 25 fold.

B1: BFP-aq, luciferase with fluorescence activity derived from aequorin (recombinant apoaequorin, SEQ ID NO: 1 with N-terminal Val replaced by Ala-Asn-Ser; complex … (protein)
chain: MTSKQYSVKLTSDFDNPRWIGRHKHMFNFLDVNHNGKISLDEMVYKASDIVINNLGATPEQAKRHKDAVEAFFGGAGMKYGVETDWPAYIEGWKKLATDELEKYAKNEPTLIRIWGDALFDIVDKDQNGAITLDEWKAYTKAAGIIQSSEDCEETFRVCDIDESGQLDVDEMTRQHLGFWYTMDPACEKLYGGAVP
notes: The recombinant apoaequorins encoded by piP-HE is composed of 191 amino acids, whose N-terminus starts from Ala-Asn-Ser-; made in house; host or cells: E. coli strain WA802 (expression vector piP-HE)
Turning to B1, the results for the Km in series [5] (with 150 mM imidazole) and in series [5] (without imidazole) were 9.2 μM μM and 9.6 μM μM, respectively.

Values taken from patent publication US7396655B2, “Method for enhancing activity of luciferase with fluorescence activity” (Chisso Corporation, priority 2005, dated 2008).
